In PMC8505397, “Development of peptides targeting receptor binding site of the envelope glycoprotein to contain the West Nile virus infection” (Scientific Reports, 2021):

How the values were obtained:
[1] = tested on: adhesion of rDIII on cultured hBMECs; test: Blocking of adhesion of rDIII on cultured hBMECs by peptides (immunocytochemistry); type: cell-based, human; conditions: 5 µg (0.39 nM) rDIII pre-blocked with tenfold molar excess (3.9 nM) of peptide
Procedure: Cells were cultured as described in Supplementary Method S1. First, concentration-dependent immunocytochemistry was performed to reveal the minimum concentration of rDIII required to detect its adhesion to the endothelial cells. Details are presented in Supplementary Method S14.
After that, the ability of peptides to block the adhesion of rDIII to the culture of hBMECs was judged. A tenfold molar excess of each peptide was incubated with rDIII for 1 h at room temperature. Pre-incubated rDIII was subsequently used in the assay. Details are described in the Supplementary Method S14. […]
Blocking of adhesion of rDIII on cultured hBMECs by peptides (immunocytochemistry). First, different concentrations of rDIII were tested to get the minimum concentration of rDIII required to detect the adhesion of the domain to the cultured hBMECs. In short, hBMECs were cultured on collagen type I (Sigma) coated coverslips in a 12-well culture plate in EBM-2 medium (Lonza) as was described in Supplementary Method S1 until 70% confluency. Cells were washed 2 times with PBS (pH 7.4) and fixed with acetone/ethanol (8:2 [v/v]) for 10 min at 4°C. Cells were washed 3 times with PBS (pH 7.4) and incubated with rDIII at different concentrations (20 µg, 15 µg, 10 µg, 5 µg, 2.5 µg, 2 µg, and 1 µg) diluted in 1 mL of PBS (pH 7.4) for 1 h at room temperature with gentle shaking. […]

hBMECs = test: Peptide cytotoxicity assay (XTT); type: cell-based, human; conditions: 1 μM, 2 μM, 4 μM and 6 μM; 24 h
Procedure: The toxicity of peptides was determined by the XTT test (AppliChem, USA) as per the manufacturer’s instructions. Details are presented in Supplementary Method S15. […]
Cytotoxicity assay. hBMECs were cultured in 96-well TPP tissue culture plates (Sigma) in supplemented EBM-2 medium (Lonza) to obtain ~70% confluency (as described in Supplementary Method S1). The peptides in concentrations of 1 µM, 2 µM, 4 µM, and 6 µM (diluted in 100 µL of EBM-2 medium supplemented only with 10% FBS, 10 mM HEPES and 1 ng/mL bFGF; Sigma) were added and incubated for 24 h at 37°C in a humid atmosphere of 5% CO2. Untreated cells served as a negative control (100% viability). For positive control, cells treated with 0.01% Triton X-100 were used. After incubation, the mixture of XTT and activation reagent (5:0.1 [v/v], 50 µL each well) was added to each well and incubated for an additional 3 h at 37°C in a humid atmosphere of 5% CO2. The absorbance was measured at 450 nm. The assay was performed in replicates. The viability (%) of endothelial cells was calculated using the formula: Cell viability (%) = [(A - xA ) × 100] / (xA -

CC[C@H](C)[C@@H]1NC(=O)[C@@H](NC(=O)[C@H](C)N)CSSC[C@@H](C(=O)NCC(=O)NCC(=O)NCC(=O)N[C@@H](CO)C(=O)O)NC(=O)[C@H](C)NC(=O)[C@H](CCCNC(=N)N)NC(=O)[C@H]([C@@H](C)O)NC(=O)[C@H](CO)NC(=O)[C@H](CO)NC(=O)[C@H](Cc2c[nH]cn2)NC1=O [CP4, CIHSSTRAC]
inhibition of the adhesion of rDIII on endothelial cells (immunocytochemistry) [1]: able to inhibit the adhesion of rDIII on the endothelial cells | cytotoxic effect on hBMECs (XTT) (hBMECs): None of the peptides was toxic
